Like-named read-outs stand apart in the source and are kept apart here.
Assays:
human PI3Kα protein = target: T1, human PI3Kα protein (Homo sapiens, UniProt P42336); assay: PI3Kα enzyme assay (ADP-Glo); format: biochemical; details: read-out: PI3Kα enzyme inhibitory activity
T1 construct: purchased Carna Biosciences, Inc; host or cells: baculovirus expression system
Description: In a PI3Kα enzyme assay, a product (manufactured by Carna Biosciences, Inc.) obtained by biotinylating a human PI3Kα protein produced by using a baculovirus expression system was used. In addition, in the detection of enzyme activity, ADP-GLO KINASE ASSAY (trade name, manufactured by PROMEGA Corporation) was used.
10 μL of a reaction liquid (4.5 nmol/L PI3Kα, 40 mmol/L Tris-HCl, 20 mmol/L MgCl2, 0.1% BSA, pH 7.5) including the human PI3Kα protein and a test compound having a predetermined concentration was allowed to stand at room temperature for 15 minutes. Then, 5 μL of a mixture liquid of L-α-phosphatidylinositol 4,5-diphosphate (PIP2) (manufactured by Sigma-Aldrich Co. LLC.) and ATP (manufactured by Sigma-Aldrich Co. LLC.), which are substrates, was added thereto such that final concentrations thereof became 50 μmol/L and 100 μmol/L, respectively, and an enzyme reaction was performed by allowing to stand at 25° C. for 60 minutes.
After the reaction, the enzyme reaction was stopped by adding 15 μL of an ADP-GLO REAGENT (trade name, manufactured by PROMEGA Corporation) thereto and allowing to stand at room temperature for 60 minutes. Then, 30 μL of a KINASE DETECTION REAGENT (trade name, manufactured by PROMEGA Corporation) was added thereto, followed by allowing to stand at room temperature for 40 minutes, and ADP produced by the enzyme reaction was quantified by emission intensity.
ENVISION (trade name, manufactured by Perkin Elmer Inc.) was used for the measurement of the emission intensity.
(§1) The inhibitory activities of the compounds were evaluated using IC50 (50% inhibitory concentration). The IC50 was calculated using XLFIT (trade name, manufactured by ID Business Solutions).

[1] = target: T2, GST fusion human ERK2 protein (Homo sapiens, UniProt P28482); assay: ERK2 enzyme assay (2); format: biochemical; details: read-out: ERK2 enzyme inhibitory activity (2)
T2 construct: purchased Carna Biosciences, Inc; host or cells: E. coli expression system
Description: In an ERK2 enzyme assay, GLUTATHIONE S-TRANSFERASE (GST) FUSION HUMAN ERK2 PROTEIN (manufactured by Carna Biosciences, Inc.), which was produced by using an E. coli expression system, was used.
12 μL of a reaction liquid (1.25 nmol/L ERK2, 100 mmol/L Hepes, 10 mmol/L MgCl2, 1.5 mmol/L DTT, 0.003% Brij35, pH 7.5) including ERK2 protein and a test compound having a predetermined concentration was allowed to stand at room temperature for 15 minutes. Then, 3 μL of a mixture liquid of FL-PEPTIDE8 (5-FAM-IPTSPITTTYFFFKKK-COOH) (manufactured by Caliper Life Sciences), which is substrate peptide, and ATP (manufactured by Sigma-Aldrich Co. LLC.) was added thereto such that the final concentrations thereof became 4.25 μmol/L and 1 mmol/L, respectively, and an enzyme reaction was performed by allowing to stand at 25° C. for 120 minutes.
After the reaction, the enzyme reaction was stopped by adding 30 μL of a reaction stopper liquid (100 mmol/L HEPES, 11.2 mmol/L EDTA, 5.6% Brij35, pH 7.5) including a 0.5% COATING REAGENT 8 (trade name, manufactured by Perkin Elmer Inc.) thereto. Then, phosphorylated peptide and non-phosphorylated peptide were separated using LABCHIP EZ READER (trade name, manufactured by Caliper Life Sciences), and the porportion of the phosphorylated peptide was quantified.
as §1

T2 sequence (P28482 whole entry, the tested form may be a part): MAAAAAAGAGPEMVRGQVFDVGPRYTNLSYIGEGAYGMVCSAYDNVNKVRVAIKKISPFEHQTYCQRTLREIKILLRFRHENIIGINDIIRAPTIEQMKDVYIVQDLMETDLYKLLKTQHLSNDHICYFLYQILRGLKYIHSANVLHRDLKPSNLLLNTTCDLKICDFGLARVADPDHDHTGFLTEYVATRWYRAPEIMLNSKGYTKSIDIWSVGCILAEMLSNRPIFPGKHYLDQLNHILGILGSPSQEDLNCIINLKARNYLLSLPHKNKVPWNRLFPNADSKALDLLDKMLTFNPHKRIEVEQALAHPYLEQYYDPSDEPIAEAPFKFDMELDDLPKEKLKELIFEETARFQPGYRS
T1 sequence (P42336 whole entry): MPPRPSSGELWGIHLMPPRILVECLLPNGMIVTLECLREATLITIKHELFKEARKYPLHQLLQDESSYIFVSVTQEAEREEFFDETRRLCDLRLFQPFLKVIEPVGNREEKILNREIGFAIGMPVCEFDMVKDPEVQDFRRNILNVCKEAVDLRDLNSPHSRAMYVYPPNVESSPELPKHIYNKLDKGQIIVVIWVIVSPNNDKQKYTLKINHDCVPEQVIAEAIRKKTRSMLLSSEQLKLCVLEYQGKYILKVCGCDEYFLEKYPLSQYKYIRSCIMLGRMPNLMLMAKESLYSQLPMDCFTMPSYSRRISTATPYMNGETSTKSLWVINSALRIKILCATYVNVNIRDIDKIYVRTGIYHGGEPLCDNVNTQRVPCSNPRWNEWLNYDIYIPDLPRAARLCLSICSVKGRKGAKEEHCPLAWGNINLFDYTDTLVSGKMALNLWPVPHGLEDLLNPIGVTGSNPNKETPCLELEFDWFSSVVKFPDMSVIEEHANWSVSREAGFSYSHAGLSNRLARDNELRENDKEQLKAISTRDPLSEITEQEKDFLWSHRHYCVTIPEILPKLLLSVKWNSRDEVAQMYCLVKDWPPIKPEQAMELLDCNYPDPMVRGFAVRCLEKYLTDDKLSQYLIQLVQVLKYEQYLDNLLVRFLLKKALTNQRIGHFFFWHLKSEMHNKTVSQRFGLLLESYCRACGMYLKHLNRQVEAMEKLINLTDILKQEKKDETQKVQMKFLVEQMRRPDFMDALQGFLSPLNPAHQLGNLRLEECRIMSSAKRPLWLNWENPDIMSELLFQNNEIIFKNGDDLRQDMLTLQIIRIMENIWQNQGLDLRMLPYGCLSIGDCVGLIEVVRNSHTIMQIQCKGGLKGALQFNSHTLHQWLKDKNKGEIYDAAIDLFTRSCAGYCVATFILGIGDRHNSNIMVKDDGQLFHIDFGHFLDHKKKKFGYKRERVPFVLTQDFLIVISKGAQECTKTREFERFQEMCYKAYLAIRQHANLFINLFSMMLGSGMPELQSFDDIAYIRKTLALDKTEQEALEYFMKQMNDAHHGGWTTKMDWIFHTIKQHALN
T1 sequence (P27986 whole entry partner): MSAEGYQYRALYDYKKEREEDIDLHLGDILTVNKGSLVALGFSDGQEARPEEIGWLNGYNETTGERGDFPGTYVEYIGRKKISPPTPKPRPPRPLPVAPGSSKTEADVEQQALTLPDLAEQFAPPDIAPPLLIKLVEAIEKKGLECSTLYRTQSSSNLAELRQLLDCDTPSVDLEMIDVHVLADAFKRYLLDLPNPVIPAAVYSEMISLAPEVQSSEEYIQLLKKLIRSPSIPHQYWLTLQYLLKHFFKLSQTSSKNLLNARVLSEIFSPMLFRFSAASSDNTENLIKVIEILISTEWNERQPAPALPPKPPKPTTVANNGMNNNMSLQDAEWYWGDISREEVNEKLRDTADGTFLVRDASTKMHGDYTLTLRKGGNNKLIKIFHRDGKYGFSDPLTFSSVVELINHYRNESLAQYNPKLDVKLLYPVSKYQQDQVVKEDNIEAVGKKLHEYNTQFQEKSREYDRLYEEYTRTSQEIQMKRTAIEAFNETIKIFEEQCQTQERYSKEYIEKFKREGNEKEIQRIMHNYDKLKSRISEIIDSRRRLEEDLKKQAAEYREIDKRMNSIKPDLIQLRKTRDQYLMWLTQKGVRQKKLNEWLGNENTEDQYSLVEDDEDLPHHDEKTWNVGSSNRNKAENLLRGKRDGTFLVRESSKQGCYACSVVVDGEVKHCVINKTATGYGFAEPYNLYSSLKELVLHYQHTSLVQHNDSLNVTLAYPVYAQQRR

SMILES	IC50 (human PI3Kα protein) [nM]	IC50 ([1]; ERK2 enzyme assay (2)) [nM]	IC50 [1] [nM]
CC(C)c1cnnc(Nc2ccc3ncc(NC4CCOC4)cc3n2)c1 (centres unmarked) [Example 0890]	< 1000	1000 to 10000	
COC(=O)c1ccc(Cn2cc(-c3cnc4ccc(Nc5cc(C(C)C)cnn5)nc4c3)cn2)cc1 [Example 0792]	< 1000	< 1000	
COc1cnnc(Nc2ccc3ncc(-c4cnn(C)c4)cc3n2)c1 [Example 0495, N-(5-methoxypyridazin-3-yl)-7-(1-methyl-1H-pyrazol-4-yl)-1,5-naphthyridine-2-amine]	< 1000	< 1000	
CC(C)c1cnnc(Nc2ccc3ncc(-c4cnn(CC(CN5CCOCC5)OCC5CC5)c4)cc3n2)c1 (centres unmarked) [Example 0745]	< 1000	< 1000	
CC(C)c1cnnc(Nc2ccc3ncc(-c4cn(C)nc4N4CC5(COC5)C4)cc3n2)c1 [Example 0934]	< 1000		< 1000
COc1cnnc(Nc2ccc3ncc(-c4cnn(CCCN5CCOCC5)c4)cc3n2)c1 [Example 0496, N-(5-methoxypyridazin-3-yl)-7-(1-(3-morpholinopropyl)-1H-pyrazol-4-yl)-1,5-naphthyridine-2-amine]	< 1000	< 1000	
Cc1cnnc(Nc2ccc3ncc(-c4cn(C)nc4-c4cccnc4)cc3n2)c1 [Example 0527]	< 1000	1000 to 10000	
CC(C)c1cnnc(Nc2ccc3ncc(-c4cn(C)nc4-c4cncnc4)cc3n2)c1 [Example 0553]	< 1000	< 1000	
CC(C)c1cnnc(Nc2ccc3ncc(-c4cnn(C5CCN(CCO)CC5)c4)cc3n2)c1 [Example 0480, 2-(4-(4-(6-((5-Isopropylpyridazin-3-yl)amino)-1,5-naphthyridin-3-yl)-1H-pyrazol-1-yl)piperidin-1-yl)ethanol]	< 1000	< 1000	
CC(C)c1cnnc(Nc2ccc3ncc(-c4cnn(CCCN5CCOCC5C)c4)cc3n2)c1 (centres unmarked) [Example 0607, N-(5-isopropylpyridazin-3-yl)-7-(1-(3-(3-methylmorpholino)propyl)-1H-pyrazol-4-yl)-1,5-naphthyridine-2-amine]	< 1000	< 1000	
CC(C)c1cnnc(Nc2ccc3ncc(C4=CCN(C)CC4)cc3n2)c1 [Example 0884, N-(5-isopropylpyridazin-3-yl)-7-(1-methyl-1,2,3,6-tetrahydropyridin-4-yl)-1,5-naphthyridine-2-amine]	1000 to 10000	< 1000	
CCCCOC1CN(CCCn2cc(-c3cnc4ccc(Nc5cc(C(C)C)cnn5)nc4c3)cn2)C1 [Example 0707]	< 1000	< 1000	
CC(C)c1cnnc(Nc2ccc3ncc(N4CC(OCC(F)F)C4)cc3n2)c1 [Example 0868]	1000 to 10000	< 1000	
CC(=O)N1CC(OCCn2cc(-c3cnc4ccc(Nc5cc(C(C)C)cnn5)nc4c3)cn2)C1 [Example 0754, 1-(3-(2-(4-(6-((5-isopropylpyridazin-3-yl)amino)-1,5-naphthyridin-3-yl)-1H-pyrazol-1-yl)ethoxy)azetidin-1-yl)ethanone]	< 1000	< 1000	
Cc1ccc(S(=O)(=O)NC2CN(CCCn3cc(-c4cnc5ccc(Nc6cc(C(C)C)cnn6)nc5c4)cn3)C2)cc1 [Example 0701]	< 1000	< 1000	
CC(C)c1cnnc(Nc2ccc3ncc(-c4cn(C)nc4N4CCC(=O)N(C)CC4)cc3n2)c1 [Example 0935, 1-(4-(6-((5-isopropylpyridazin-3-yl)amino)-1,5-naphthyridin-3-yl)-1-methyl-1H-pyrazol-3-yl)-4-methyl-1,4-diazepan-5-one]	< 1000		1000 to 10000
CC(C)c1cnnc(Nc2ccc3ncc(-c4cnn(CCN5C[C@@H](C)O[C@@H](C)C5)c4)cc3n2)c1 [Example 0617, 7-(1-(2-((2S,6R)-2,6-dimethylmorpholino)ethyl)-1H-pyrazol-4-yl)-N-(5-isopropylpyridazin-3-yl)-1,5-naphthyridine-2-amine]	< 1000	< 1000	
CC(C)c1cnnc(Nc2ccc3ncc(NC4CCC4)cc3n2)c1 [Example 0879]	< 1000	< 1000	
COC1(C)CN(CCCn2cc(-c3cnc4ccc(Nc5cc(C(C)C)cnn5)nc4c3)cn2)C1 [Example 0794, N-(5-isopropylpyridazin-3-yl)-7-(1-(3-(3-methoxy-3-methylazetidin-1-yl)propyl)-1H-pyrazol-4-yl)-1,5-naphthyridine-2-amine]	< 1000	< 1000	

SMILES	IC50 (human PI3Kα protein) [nM]	IC50 ([1]; ERK2 enzyme assay (2)) [nM]	IC50 [1] [nM]
CC(C)c1cnnc(Nc2ccc3ncc(-c4cnn(CCN5C[C@H](C)O[C@@H](C)C5)c4)cc3n2)c1 [Example 0616, 7-(1-(2-((2S,6S)-2,6-dimethylmorpholino)ethyl)-1H-pyrazol-4-yl)-N-(5-isopropylpyridazin-3-yl)-1,5-naphthyridine-2-amine]	< 1000	< 1000	
CC(C)c1cnnc(Nc2ccc3ncc(NC4COC4)cc3n2)c1 [Example 0904]	< 1000		1000 to 10000
CC(C)c1cnnc(Nc2ccc3ncc(-c4cn(C)nc4NC4CCC4)cc3n2)c1 [Example 0939]	< 1000		< 1000
CC(C)c1cnnc(Nc2ccc3ncc(-c4cncs4)cc3n2)c1 [Example 0620]	< 1000	< 1000	
COCC(C)c1cnnc(Nc2ccc3ncc(-c4cn(C)nc4C)cc3n2)c1 (centres unmarked) [Example 0786, 7-(1,3-dimethyl-1H-pyrazol-4-yl)-N-(5-(1-methoxypropan-2-yl)pyridazin-3-yl)-1,5-naphthyridine-2-amine]	< 1000	< 1000	
CC(C)c1cnnc(Nc2ccc3ncc(N4CC5CCC(C4)O5)cc3n2)c1 [Example 0903]	< 1000		< 1000
COCC(=O)N1CCC(Cn2cc(-c3cnc4ccc(Nc5cc(C(C)C)cnn5)nc4c3)cn2)CC1 [Example 0537]	< 1000	< 1000	
CC(C)c1cnnc(Nc2ccc3ncc(-c4cnn(CCCN5CC(F)(F)C5)c4)cc3n2)c1 [Example 0692]	< 1000	< 1000	
COCc1cnnc(Nc2ccc3ncc(-c4cn(C)nc4C)cc3n2)c1 [Example 0923]	< 1000		< 1000
Cc1cn(-c2cnc3ccc(Nc4cc(C(C)C)cnn4)nc3c2)cn1 [Example 0494, N-(5-isopropylpyridazin-3-yl)-7-(4-methyl-1H-imidazol-1-yl)-1,5-naphthyridine-2-amine]	< 1000	< 1000	
CC(C)c1cnnc(Nc2ccc3ncc(-c4cnn(CCCN5CCN(C(=O)N(C)C)CC5)c4)cc3n2)c1 [Example 0433]	< 1000	< 1000	
CC(C)c1cnnc(Nc2ccc3ncc(N4CC5(COC5)C4)cc3n2)c1 [Example 0855]	< 1000	< 1000	
COc1ccc(-c2nn(C)cc2-c2cnc3ccc(Nc4cc(C(C)C)cnn4)nc3c2)cc1 [Example 0584]	< 1000	< 1000	
CC(C)c1cnnc(Nc2ccc3ncc(-c4cn(C)nc4COC4CN(C)C4)cc3n2)c1 [Example 0823, N-(5-isopropylpyridazin-3-yl)-7-(1-methyl-3-(((1-methylazetidin-3-yl)oxy)methyl)-1H-pyrazol-4-yl)-1,5-naphthyridine-2-amine]	< 1000	< 1000	
CCOC(C)c1cnnc(Nc2ccc3ncc(-c4cn(C)nc4C)cc3n2)c1 (centres unmarked) [Example 0921]	< 1000		< 1000
CC(C)c1cnnc(Nc2ccc3ncc(-c4cn(C)nc4NC4CCOCC4)cc3n2)c1 [Example 0832]	< 1000	< 1000	
COc1cccc(-c2nn(C)cc2-c2cnc3ccc(Nc4cc(C(C)C)cnn4)nc3c2)c1 [Example 0452]	< 1000	< 1000	
CC(C)c1cnnc(Nc2ccc3ncc(-c4cnn(CCCN5CC(C(=O)O)C5)c4)cc3n2)c1 [Example 0666]	< 1000	< 1000	

— patent US9783536B2, “Nitrogen-containing heterocyclic compound or salt thereof” (FUJIFILM Corporation, priority 2013, dated 2017)
